Laboratory results reported in ChEMBL document CHEMBL4339203, “Structural requirements of cholenamide derivatives as the LXR ligands” (Bioorg Med Chem Lett, 2019).
The source made the active and inactive calls. The calls are words filed in the database; no cut-off is given here.

Columns and labels:
[1] = target: T1, Oxysterols receptor LXR-beta (Rattus norvegicus) (UniProt Q62755); assay: Transactivation of rat LXRbeta expressed in HEK293FT cells at 5 uM measured after 14 to 18 hrs by dual-luciferase reporter gene assay; format: cell-based
T1 sequence (whole entry): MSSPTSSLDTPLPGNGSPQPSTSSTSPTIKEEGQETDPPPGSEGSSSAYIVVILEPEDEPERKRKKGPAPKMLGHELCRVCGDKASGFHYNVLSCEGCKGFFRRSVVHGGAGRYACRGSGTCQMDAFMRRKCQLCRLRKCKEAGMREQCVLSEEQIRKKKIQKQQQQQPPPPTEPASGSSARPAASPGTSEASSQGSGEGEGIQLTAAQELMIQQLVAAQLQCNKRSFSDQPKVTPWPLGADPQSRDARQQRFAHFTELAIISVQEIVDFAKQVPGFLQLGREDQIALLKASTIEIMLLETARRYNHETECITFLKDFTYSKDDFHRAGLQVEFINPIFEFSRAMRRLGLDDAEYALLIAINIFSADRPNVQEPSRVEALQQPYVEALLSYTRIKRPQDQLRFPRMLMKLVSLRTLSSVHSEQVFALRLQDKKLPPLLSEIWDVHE

[2] = target: T2, Oxysterols receptor LXR-alpha (Rattus norvegicus, UniProt Q62685); assay: Transactivation of rat LXRalpha expressed in HEK293FT cells co-expressing RXR at 5 uM measured after 14 to 18 hrs by dual-luciferase reporter gene assay; format: cell-based
T2 sequence (Q62685 whole entry): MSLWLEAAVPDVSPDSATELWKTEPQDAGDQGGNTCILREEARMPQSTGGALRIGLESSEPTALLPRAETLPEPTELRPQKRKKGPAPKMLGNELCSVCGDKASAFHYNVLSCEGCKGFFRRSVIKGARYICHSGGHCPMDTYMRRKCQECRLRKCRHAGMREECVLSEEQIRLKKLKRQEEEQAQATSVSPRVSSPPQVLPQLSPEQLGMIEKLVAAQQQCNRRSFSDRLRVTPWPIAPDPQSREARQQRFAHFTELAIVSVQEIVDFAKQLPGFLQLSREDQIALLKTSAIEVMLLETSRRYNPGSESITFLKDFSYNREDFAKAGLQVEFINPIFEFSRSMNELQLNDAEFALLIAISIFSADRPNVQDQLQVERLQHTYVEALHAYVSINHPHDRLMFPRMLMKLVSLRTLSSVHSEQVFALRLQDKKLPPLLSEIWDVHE

[3] = target: T1, Oxysterols receptor LXR-beta (Rattus norvegicus); assay: Transactivation of rat LXRbeta expressed in HEK293FT cells co-expressing RXR at 5 uM measured after 14 to 18 hrs by dual-luciferase reporter gene assay; format: cell-based
[4] = target: T1, Oxysterols receptor LXR-beta (Rattus norvegicus); assay: Transactivation of rat LXRbeta expressed in HEK293FT cells measured after 14 to 18 hrs by dual-luciferase reporter gene assay relative to T0901317; format: cell-based
[5] = target: T3, Oxysterols receptor LXR-beta (Rattus norvegicus, UniProt Q62755); assay: Transactivation of rat LXRbeta expressed in HEK293FT cells measured after 14 to 18 hrs by dual-luciferase reporter gene assay; format: cell-based
T3 sequence (Q62755 whole entry): T1 sequence (whole entry)

[6] = Ratio of compound effect for transactivation of rat LXRalpha expressed in HEK293FT cells to compound effect for transactivation of rat LXRbeta expressed in HEK293FT cells

| SMILES | Activity [1] | Efficacy [4] [%] | EC50 ([5]; read-out: EC50) [nM] | other results |
| --- | --- | --- | --- | --- |
| CCN(CC)C(=O)CC[C@@H](C)[C@H]1CC[C@H]2[C@@H]3CC=C4C[C@@H](O)CC[C@]4(C)[C@H]3CC[C@]12C | Active | 211 | 344 | Activity [2]: Active; Activity [3]: Active |
| CC(C)NC(=O)CC[C@@H](C)[C@H]1CC[C@H]2[C@@H]3CC=C4C[C@@H](O)CC[C@]4(C)[C@H]3CC[C@]12C | Active | 85 | 862 | – |
| CCN1CCC[C@@H](C[C@@H](C)[C@H]2CC[C@H]3[C@@H]4CC=C5C[C@@H](O)CC[C@]5(C)[C@H]4CC[C@]23C)C1=O | – | 62 | 643 | – |
| CCN(C)C(=O)C(C)C[C@@H](C)[C@H]1CC[C@H]2[C@@H]3CC=C4C[C@@H](O)CC[C@]4(C)[C@H]3CC[C@]12C (stereo in doubt; 11) [listing 1 of 2 here] | – | – | 1990 | – |
| C[C@H](CCC(=O)N1CCCCC1)[C@H]1CC[C@H]2[C@@H]3CC=C4C[C@@H](O)CC[C@]4(C)[C@H]3CC[C@]12C | Active | 134 | 127 | – |
| C[C@H](CCC(=O)N(C)C)[C@H]1CC[C@H]2[C@@H]3CC=C4C[C@@H](O)CC[C@]4(C)[C@H]3CC[C@]12C | Active | 100 | 124 to 464 | – |
| CCN(C)C(=O)C(C)C[C@@H](C)[C@H]1CC[C@H]2[C@@H]3CC=C4C[C@@H](O)CC[C@]4(C)[C@H]3CC[C@]12C (stereo in doubt; 10) [listing 1 of 2 here] | – | – | 3900 | – |
| CC(C)N(C(=O)CC[C@@H](C)[C@H]1CC[C@H]2[C@@H]3CC=C4C[C@@H](O)CC[C@]4(C)[C@H]3CC[C@]12C)C(C)C | Active | 148 | 1110 | Activity [2]: Active; Activity [3]: Active; Ratio [6]: 2 |
| CCN(C)C(=O)CC[C@@H](C)[C@H]1CC[C@H]2[C@@H]3CC=C4C[C@@H](O)CC[C@]4(C)[C@H]3CC[C@]12C | – | 108 | 786 | Activity [2]: Active; Activity [3]: Active |
| C[C@H](C[C@H]1CCN(C)C1=O)[C@H]1CC[C@H]2[C@@H]3CC=C4C[C@@H](O)CC[C@]4(C)[C@H]3CC[C@]12C | – | – | 1290 | – |
| CCCN(C)C(=O)CC[C@@H](C)[C@H]1CC[C@H]2[C@@H]3CC=C4C[C@@H](O)CC[C@]4(C)[C@H]3CC[C@]12C | – | 102 | 1020 | Activity [2]: Active; Activity [3]: Active |
| CC(C)N(C)C(=O)CC[C@@H](C)[C@H]1CC[C@H]2[C@@H]3CC=C4C[C@@H](O)CC[C@]4(C)[C@H]3CC[C@]12C | – | 109 | 623 | Activity [2]: Active; Activity [3]: Active |
| CCN(C)C(=O)C(C)C[C@@H](C)[C@H]1CC[C@H]2[C@@H]3CC=C4C[C@@H](O)CC[C@]4(C)[C@H]3CC[C@]12C (stereo in doubt; 11) [listing 2 of 2 here] | – | 65 | – | – |
| O=S(=O)(c1ccccc1)N(CC(F)(F)F)c1ccc(C(O)(C(F)(F)F)C(F)(F)F)cc1 | – | 98 | – | – |
| C[C@H](C[C@@H]1CCCCN(C)C1=O)[C@H]1CC[C@H]2[C@@H]3CC=C4C[C@@H](O)CC[C@]4(C)[C@H]3CC[C@]12C | – | 80 | 462 | – |
| C[C@H](C[C@H]1CCCN(C)C1=O)[C@H]1CC[C@H]2[C@@H]3CC=C4C[C@@H](O)CC[C@]4(C)[C@H]3CC[C@]12C | – | – | 239 | – |
| C[C@H](CCC(=O)N1CCCC1)[C@H]1CC[C@H]2[C@@H]3CC=C4C[C@@H](O)CC[C@]4(C)[C@H]3CC[C@]12C | Active | 99 | 165 | – |
| CCN(C)C(=O)C(C)C[C@@H](C)[C@H]1CC[C@H]2[C@@H]3CC=C4C[C@@H](O)CC[C@]4(C)[C@H]3CC[C@]12C (stereo in doubt; 10) [listing 2 of 2 here] | – | 39 | – | – |
| C[C@H](C[C@@H]1CCN(C)C1=O)[C@H]1CC[C@H]2[C@@H]3CC=C4C[C@@H](O)CC[C@]4(C)[C@H]3CC[C@]12C | – | – | – | EC50 [5]: Not Active |
| C[C@H](C[C@@H]1CCCN(C)C1=O)[C@H]1CC[C@H]2[C@@H]3CC=C4C[C@@H](O)CC[C@]4(C)[C@H]3CC[C@]12C | – | – | – | EC50 [5]: Not Active |
